The values that follow come from PMC10457740, “Design, Synthesis and Biological Evaluation of Novel PEG-Rakicidin B1 Hybrid as Clostridium difficile (CD) Targeted Anti-Bacterial Agent” (Molecules, 2023).

Where a name gives a salt, the structure may show the parent alone. Read-outs that look alike come from different tables or passages of the source.

Test [1] relates to PANC-1 cells (zebrafish pancreatic cancer transplant model). Description: In vivo cytotoxicity, zebrafish pancreatic cancer transplant model. The note with it: 48 h, n = 10.
The subject of the next test is PANC-1. Description: In vitro cytotoxicity, CCK-8 assay, PANC-1. In kind it is cell-based. The conditions noted are these: Homo sapiens, PANC-1, 48 h.
The test system of another test is HCT-8 cells. Description: In vitro cytotoxicity, CCK-8 assay, HCT-8. The conditions noted are these: Homo sapiens, HCT-8, 48 h. The format is cell-based.
A further test deals with Caco-2. The experiment in a line: In vitro cytotoxicity, CCK-8 assay, Caco-2. The note with it: Homo sapiens, Caco-2, 48 h. In kind it is cell-based.
For test [2], the system named is C. difficile infection (CDI). The conditions noted are these: cited from earlier work; for recurrence of CDI: patients, after treatment; for response in patients: treatment of mild to moderate episodes of CDI.
A further test has as its system CD strain ATCC 43255. Description: CDI mouse model (survival, recurrence, weight, clinical scores).

Take `C=C1/C=C/C(=O)N(C)CC(=O)N[C@@H]([C@H](O)C(N)=O)C(=O)O[C@@H]([C@H](C)CCCCCCCCCCCC(C)CC)[C@H](C)C(=O)N1` (stereo partly shown) [Rakicidin B1]: the “Fluorescence Intensity (S, Mean ± SE)” value is 773,141 ± 49,850 in test [1] (22.4 nM in water), 662,225 ± 41,743 in test [1] (67.2 nM in water) and 527,824 ± 34,172 in test [1] (201.5 nM in water). Also, the inhibition at 0.0224 µM in test [1] (Danio rerio, PANC-1, 22.4 nM in water, read-out: Inhibition Rate (%)) is 17%. Further, the inhibition at 0.0672 µM in test [1] (Danio rerio, PANC-1, 67.2 nM in water, read-out: Inhibition Rate (%)) turned out to be 29%. In addition, in test [1] (Danio rerio, PANC-1, 201.5 nM in water, read-out: Inhibition Rate (%)), the inhibition at 0.2015 µM is 43%. In addition, the half-maximal inhibitory concentration (IC50) in the test on PANC-1 (read-out: IC50 PANC-1, hypoxia (5% CO2, 95% N2), 48 h, CCK-8) worked out at 486 nM; with PANC-1 (read-out: IC50 PANC-1, normoxia, 48 h drug exposure, CCK-8), 815 nM; in the test with HCT-8 cells (read-out: IC50 HCT-8, hypoxia (5% CO2, 95% N2), 48 h, CCK-8), 430 nM; in the test with HCT-8 cells (read-out: IC50 HCT-8, normoxia, 48 h drug exposure, CCK-8), 519 nM; in the test on Caco-2 (read-out: IC50 Caco-2, hypoxia (5% CO2, 95% N2), 48 h, CCK-8), 457 nM; in the test on Caco-2 (read-out: IC50 Caco-2, normoxia, 48 h drug exposure, CCK-8) it was 586 nM.

For `Nc1ccn([C@@H]2O[C@H](CO)[C@@H](O)C2(F)F)c(=O)n1` [gemcitabine hydrochloride], the “Fluorescence Intensity (S, Mean ± SE)” value in test [1] (66.7 µM in water) was 540,311 ± 59,245 ^1. In addition, the inhibition at 66.7 µM in test [1] (Danio rerio, PANC-1, 66.7 µM in water, read-out: Inhibition Rate (%)) amounted to 42%.

In the case of `Cc1ncc([N+](=O)[O-])n1CCO` [metronidazole], in test [2], the “recurrence of CDI” value is reported as 25–30% and the response in patients entry was “approximately 90%”.

Turning to `CN[C@H](CC(C)C)C(=O)N[C@H]1C(=O)N[C@@H](CC(N)=O)C(=O)N[C@H]2C(=O)N[C@H]3C(=O)N[C@H](C(=O)N[C@H](C(=O)O)c4cc(O)cc(O)c4-c4cc3ccc4O)[C@H](O)c3ccc(c(Cl)c3)Oc3cc2cc(c3O[C@@H]2O[C@H](CO)[C@@H](O)[C@H](O)[C@H]2O[C@H]2C[C@](C)(N)[C@H](O)[C@H](C)O2)Oc2ccc(cc2Cl)[C@H]1O` [vancomycin], in test [2], the “recurrence of CDI” value was 25–30% and the response in patients result is given as “approximately 90%”. Further, the “mortality rate after stopping treatment (recurrence of infection)” value with CD strain ATCC 43255 (C57BL/6 mice, vancomycin 20 mg/kg once a day for seven days, monitored until day 21) worked out at 40%. Further, the “body weight changes and clinical scores after stopping treatment” value with CD strain ATCC 43255 (infected C57BL/6 mice, after seven-day treatment, until day 21) was “significant weight loss and a sharp increase in clinical scores”. Further, in the test on CD strain ATCC 43255 (infected C57BL/6 mice, during seven-day treatment), the “body weight changes and clinical scores while receiving treatment” value is listed as “did not experience weight loss or an increase in clinical scores”. Moreover, the “recurrence of infection after treatment ended” value in the test on CD strain ATCC 43255 (infected C57BL/6 mice, monitored until day 21) was “recurrence of infection is observed”.
